Test results: patent publication US9394285B2 (Pfizer Inc., priority 2013, dated 2016)

Biological target: human AMPK (full-length γ1, β1 and α1 subunits) (Homo sapiens (Human), UniProt Q13131+Q9Y478)
Experiment: AMPK in vitro biochemical assay (33P-based, SAMS peptide, PP2A dephosphorylation)
Details: for EC50: activation of phosphorylated AMPK, 33P-ATP, SAMS peptide, PP2A treatment, 4-parameter fit; for Emax: counts as % of positive control wells (enzyme, allosteric activator or AMP, PP2A and substrate), read-out: Maximum
Text: We designed a tricistronic AMPK expression construct that included open reading frames encoding the full-length γ1, β1 and α1 subunits of human AMPK with a ribosome-binding site (RBS) ahead of each coding region and subcloned this into pET-14b expression vector (Novagen, Madison, Wis.) using standard molecular biology techniques. AMPK tricistronic construct was transformed into E. coli BL21-CodonPlus™ (DE3)-RIPL strain (Stratagene) and transformants were selected on LB (Luria-Bertani) agar plates containing ampicillin (100 μg/ml). […] Optical density sample measurements were made on an UltroSpec 2000 spectrophotometer (Pharmacia Biotech) at 600 nm. When the cell density reached ˜0.9 OD, the temperature was reduced to 18° C. and the culture was induced at 18° C. with 0.1 mM Isopropylthiogalactoside (IPTG). […] The cell pellets were aliquoted into four portions, flash frozen in liquid nitrogen and were stored at −80° C. until purification. For purification, frozen cell paste was thawed and resuspended in 50 ml lysis buffer (50 mM Tris, pH 8.0, 150 mM NaCl, 10% glycerol, 2 mM Tris-2-carboxyethyl phosphine (TCEP), 20 mM imidazole and 0.001% Triton X-100). After sonication, insoluble material was removed by centrifugation at 15,000 rpm in a Sorvall® RC5 plus centrifuge for 30 min at 4° C. and the supernatant was loaded onto a 5 ml HisTrap™ HP column (GE Healthcare, Piscataway, N.J.) and washed with five column volumes of lysis buffer. Bound proteins were eluted using an elution buffer containing 300 mM imidazole. Fractions containing AMPK subunits were pooled based on SDS-10% PAGE analysis and dialyzed overnight in dialysis buffer (50 mM Tris, pH 8.0, 150 mM NaCl, 10% glycerol, 2 mM TCEP, and 0.001% Triton X-100). […] The phosphorylated AMPK complex was re-purified on HisTrap™ HP column as before, dialyzed over night in dialysis buffer. The phosphorylated AMPK complex was further purified by gel filtration chromatography with a Superdex 200 HiLoad 16/60 column (GE Healthcare) in SEC buffer (50 mM Tris, pH 8.0, 150 mM NaCl, 10% glycerol, 2 mM TCEP, and 0.001% Triton X-100).
The harvest time (72 hours post infection) was indicated by percent cell viability (to 85-90%) and increased cell diameter (3-4 μm). […] For purification, the cell paste was resuspended in 500 mL lysis buffer (50 mM Tris pH 8.0, 150 mM NaCl, 25 mM imidazole, 10% glycerol, 2 mM MgCl2, 2 mM TCEP+protease inhibitor cocktail. After lysis, cellular debris was removed by centrifugation at 36K×g for 1 hour. The resulting supernatant was filtered at 0.2 micron before applying to a 1 mL nickel charged IMAC column (HisTrap, GE). The bound resin was washed to baseline with 50 CV of 50 mM Tris pH 8.0, 150 mM NaCl, 25 mM imidazole, 10% glycerol, 2 mM MgCl2, 2 mM TCEP before eluting over a 20 CV gradient to 100% with wash buffer containing 500 mM imidazole. Pooled fractions containing PP2A were combined and diluted 10× with 50 mM Tris pH 8.0, 10% glycerol, 1 mM TCEP and applied to a 1 mL AIEX resin (HiTrap QFF, GE). The bound resin was washed with dilution buffer and PP2A was eluted over a 20 CV gradient to 100% 50 mM Tris pH 8.0, 500 mM NaCl, 10% glycerol, 1 mM TCEP and was further diluted 1:1 with 50 mM Tris pH 8.0, 150 mM NaCl, 10% glycerol, and 1 mM TCEP buffer.
The biochemical EC50 (half-maximal concentration required for full activation) of compounds for the activation of AMPK was evaluated by ^33P-based assay using SAMS peptide (commercially available) derived from ACC-1. Twenty μl of phosphorylated AMPK diluted in assay buffer, (50 mM HEPES, 1 mM EGTA, 10 mM MgCl2, 0.25 mM DTT, 0.01% Tween-20, 0.01% BSA (pH 7.5)) was added to 384 well plates containing 1 μL of test compound. Following a fifteen minute room temperature incubation, 10 μL of protein phosphatase PP2A was added to the plate to dephosphorylate pThr172 of AMPK. […] The reaction was terminated after 60 minutes incubation at room temperature by the addition of 15 μL of 2% H3PO4.

human AMPK (full-length γ1, β1 and α1 subunits), sequence (Q13131 whole entry): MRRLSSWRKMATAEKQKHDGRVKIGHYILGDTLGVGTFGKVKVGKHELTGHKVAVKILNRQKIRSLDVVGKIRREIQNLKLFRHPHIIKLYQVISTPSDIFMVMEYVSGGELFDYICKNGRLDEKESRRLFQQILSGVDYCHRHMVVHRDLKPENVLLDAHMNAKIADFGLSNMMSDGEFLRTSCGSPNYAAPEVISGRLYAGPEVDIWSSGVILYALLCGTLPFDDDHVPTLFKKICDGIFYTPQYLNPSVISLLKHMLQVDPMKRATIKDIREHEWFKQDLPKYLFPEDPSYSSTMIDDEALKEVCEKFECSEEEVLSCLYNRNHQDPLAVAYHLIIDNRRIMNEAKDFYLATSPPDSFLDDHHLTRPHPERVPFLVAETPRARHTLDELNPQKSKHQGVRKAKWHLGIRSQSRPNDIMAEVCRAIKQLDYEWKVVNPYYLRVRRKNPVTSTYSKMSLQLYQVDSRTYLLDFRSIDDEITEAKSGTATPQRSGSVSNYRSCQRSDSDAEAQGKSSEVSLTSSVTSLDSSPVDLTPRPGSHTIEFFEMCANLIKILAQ
human AMPK (full-length γ1, β1 and α1 subunits), sequence (Q9Y478 whole entry): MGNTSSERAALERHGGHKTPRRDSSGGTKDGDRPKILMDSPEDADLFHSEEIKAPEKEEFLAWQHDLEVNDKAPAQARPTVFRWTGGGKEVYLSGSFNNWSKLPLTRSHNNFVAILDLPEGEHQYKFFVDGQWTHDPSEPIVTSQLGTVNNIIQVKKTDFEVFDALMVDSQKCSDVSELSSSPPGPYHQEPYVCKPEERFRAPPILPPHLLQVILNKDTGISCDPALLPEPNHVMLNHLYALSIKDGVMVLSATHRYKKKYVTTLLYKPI
human AMPK (full-length γ1, β1 and α1 subunits), sequence (P54619 whole entry partner): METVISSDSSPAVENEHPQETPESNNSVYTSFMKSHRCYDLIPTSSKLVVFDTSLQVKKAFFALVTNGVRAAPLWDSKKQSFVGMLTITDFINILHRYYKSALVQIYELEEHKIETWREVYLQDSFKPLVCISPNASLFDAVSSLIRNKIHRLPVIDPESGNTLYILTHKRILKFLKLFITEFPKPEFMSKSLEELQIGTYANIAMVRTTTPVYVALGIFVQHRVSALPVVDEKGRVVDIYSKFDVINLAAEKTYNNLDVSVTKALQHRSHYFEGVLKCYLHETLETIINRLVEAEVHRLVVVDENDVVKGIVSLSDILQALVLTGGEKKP

Row | SMILES | EC50 | Emax
1 | O=C(O)c1c[nH]c2cc(Cl)c(-c3ccc(C4(CO)CCC4)c(F)c3)cc12 [Example 142, 6-chloro-5-{3-fluoro-4-[1-(hydroxymethyl)cyclobutyl]phenyl}-1H-indole-3-carboxylic acid] | 0.0215 µM | 92.9%
2 | O=C(O)c1c[nH]c2cc(Cl)c(-c3ccc(OCCCN4CCOCC4=O)cc3)cc12 [Example 54, 6-chloro-5-{4-[3-(3-oxomorpholin-4-yl)propoxy]phenyl}-1H-indole-3-carboxylic acid] | 0.0325 µM | 74%
3 | CC(=O)N1CCC(c2ccc(-c3cc4c(C(=O)O)c[nH]c4cc3Cl)cc2)C1 (centres unmarked) [Example 15, 5-[4-(1-acetylpyrrolidin-3-yl)phenyl]-6-chloro-1H-indole-3-carboxylic acid] | 0.632 µM | 92%
4 | O=C(O)c1c[nH]c2cc(Cl)c(-c3ccc(-c4ccccc4)cc3)cc12 [Example 43, 5-(biphenyl-4-yl)-6-chloro-1H-indole-3-carboxylic acid] | 0.0017 µM | 68%
5 | O=C(O)c1c[nH]c2cc(Cl)c(-c3ccc(OCC4COC4)cc3)cc12 [Example 89, 6-chloro-5-[4-(oxetan-3-ylmethoxy)phenyl]-1H-indole-3-carboxylic acid] | 0.0654 µM | 99%
6 | O=C(O)c1c[nH]c2cc(Cl)c(-c3ccc(OCc4ncccn4)cc3)cc12 [Example 160, 6-chloro-5-[4-(pyrimidin-2-ylmethoxy)phenyl]-1H-indole-3-carboxylic acid] | 0.0173 µM | 118%
7 | O=C(O)c1c[nH]c2cc(Cl)c(-c3ccc(OCCC4COC4)cc3)cc12 [Example 156, 6-chloro-5-(4-(2-(oxetan-3-yl)ethoxy)phenyl)-1H-indole-3-carboxylic acid] | 0.0319 µM | 98.9%
8 | O=C(O)c1n[nH]c2cc(Cl)c(-c3ccc(N4CCOCC4)cc3)cc12 [Example 128, 6-Chloro-5-(4-morpholinophenyl)-1H-indazole-3-carboxylic acid] | 0.0198 µM | 70%
9 | O=C(O)c1c[nH]c2cc(Cl)c(-c3ccc4c(c3)OCC4)cc12 [Example 57, 6-chloro-5-(2,3-dihydrobenzofuran-6-yl)-1H-indole-3-carboxylic acid] | 0.0645 µM | 107%
10 | O=C(O)c1n[nH]c2cc(Cl)c(-c3ccc(C4CCOCC4)cc3)cc12 [Example 104, 6-Chloro-5-(4-(tetrahydro-2H-pyran-4-yl)phenyl)-1H-indazole-3-carboxylic acid] | 0.0365 µM | 88%
11 | COc1cc(-c2cc3c(C(=O)O)n[nH]c3cc2Cl)ccc1C1(O)CCC1 [Example 131, 6-Chloro-5-[4-(1-hydroxycyclobutyl)-3-methoxyphenyl]-1H-indazole-3-carboxylic acid] | 0.0179 µM | 95%
12 | O=C(O)c1c[nH]c2cc(Cl)c(-c3ccc(OC[C@@H]4CCCN4)cc3)cc12 [Example 47, 6-chloro-5-{4[(2S)-pyrrolidin-2-ylmethoxy]phenyl}-1H-indole-3-carboxylic acid] | 0.0653 µM | 96%
13 | COC(C)c1ccc(-c2cc3c(C(=O)O)n[nH]c3cc2Cl)cc1 (centres unmarked) [Example 125, 6-Chloro-5-(4-(1-methoxyethyl)phenyl)-1H-indazole-3-carboxylic acid] | 0.133 µM | 90%
14 | CC(C)(O)c1ccc(-c2cc3c(C(=O)O)n[nH]c3cc2Cl)cc1 [Example 102, 6-Chloro-5-(4-(2-hydroxypropan-2-yl)phenyl)-1H-indazole-3-carboxylic acid] | 0.0337 µM | 79%
15 | O=C(O)c1c[nH]c2cc(F)c(-c3ccc(C4CCCO4)cc3)c(F)c12 (centres unmarked) [Example 152, 4,6-difluoro-5-[4-(tetrahydrofuran-2-yl)phenyl]-1H-indole-3-carboxylic acid] | – | 112%
16 | COc1ccc(-c2cc3c(C(=O)O)c[nH]c3cc2Cl)cc1 [Example 33, 6-Chloro-5-(4-methoxy-phenyl)-1H-indole-3-carboxylic acid] | 0.0853 µM | 83%
17 | COc1cc(-c2cc3c(C(=O)O)c[nH]c3cc2F)ccc1C1(O)CCC1 [Example 25, 6-fluoro-5-[4-(1-hydroxycyclobutyl)-3-methoxyphenyl]-1H-indole-3-carboxylic acid] | 0.111 µM | 78%
18 | O=C(O)c1c[nH]c2cc(F)c(-c3ccc(OCCC4CCCO4)cc3)c(F)c12 (centres unmarked) [Example 191, 4,6-difluoro-5-{4-[2-(tetrahydrofuran-2-yl)ethoxy]phenyl}-1H-indole-3-carboxylic acid] | 0.121 µM | 140%
19 | CC(C)Oc1ccc(-c2cc3c(C(=O)O)n[nH]c3cc2Cl)cc1 [Example 100, 6-Chloro-5-(4-isopropoxyphenyl)-1H-indazole-3-carboxylic acid] | 0.19 µM | 80%
20 | COc1nc(N(C)CCO)ccc1-c1cc2c(C(=O)O)c[nH]c2cc1Cl [Example 186, 6-chloro-5-{6-[(2-hydroxyethyl)(methyl)amino]-2-methoxypyridin-3-yl}-1H-indole-3-carboxylic acid] | 0.0845 µM | 114%
21 | CC(C)(CO)c1ccc(-c2cc3c(C(=O)O)c[nH]c3cc2Cl)cc1O [Example 148, 6-chloro-5-[3-hydroxy-4-(1-hydroxy-2-methylpropan-2-yl)phenyl]-1H-indole-3-carboxylic acid] | 0.00656 µM | 119%
22 | O=C(O)c1c[nH]c2cc(Cl)c(-c3ccc(OC4COC4)cc3)cc12 [Example 18, 6-chloro-5-[4-(oxetan-3-yloxy)phenyl]-1H-indole-3-carboxylic acid] | 0.181 µM | 92%
23 | CC(C)c1ccc(-c2cc3c(C(=O)O)c[nH]c3cc2Cl)cc1 [Example 162, 6-chloro-5-[4-(propan-2-yl)phenyl]-1H-indole-3-carboxylic acid] | 0.192 µM | 123%
24 | COc1cc(-c2cc3c(C(=O)O)c[nH]c3cc2Cl)ccc1C1(O)COC1 [Example 60, 6-chloro-5-[4-(3-hydroxyoxetan-3-yl)-3-methoxyphenyl]-1H-indole-3-carboxylic acid] | 0.0078 µM | 65%
25 | COc1nc(N2CCC(OC)C2)ccc1-c1cc2c(C(=O)O)c[nH]c2cc1Cl (stereo in doubt) [Example 176, 6-chloro-5-{2-methoxy-6-[(3S)-3-methoxypyrrolidin-1-yl]pyridin-3-yl}-1H-indole-3-carboxylic acid] | 0.0056 µM | 62.4%
26 | O=C(O)c1c[nH]c2cc(Cl)c(-c3ccc(C4(CO)COC4)cc3)cc12 [Example 96, 6-chloro-5-{4-[3-(hydroxymethyl)oxetan-3-yl]phenyl}-1H-indole-3-carboxylic acid] | 0.0581 µM | 83%
27 | O=C(O)c1c[nH]c2cc(Cl)c(-c3ccc(-c4ccccc4O)cc3)cc12 [Example 67, 6-chloro-5-(2′-hydroxybiphenyl-4-yl)-1H-indole-3-carboxylic acid] | 0.0024 µM | 112%
